Measured values as given in US12589156B2, “Benzimidazole and benzimidazolone based protac compounds for the targeted degradation of leucine rich repeat kinase 2 (LRRK2)” (Arvinas Operations, Inc., priority 2023, dated 2026).

Molecular target: T1, WT LRRK2 (Homo sapiens, UniProt Q5S007)
T1 construct: endogenous in cells; host or cells: HEK293 (endogenous LRRK2 gene knock-in tagged with HiBit; stably expressing CMV-driven firefly luciferase)
Assay: LRRK2 HiBit degradation assay (Nano-Glo Dual Luciferase) in HEK293 cells with HiBit-tagged endogenous LRRK2
Type: cell-based
Settings: HiBit-tagged LRRK2 in HEK293 cells, 24 hours treatment; for Dmax: maximal degradation; for DC50: starting concentration 1 μM
Text: Biological Assays Exemplary Assay for Testing LRRK2 Degradation Driven by Exemplary Hetero-Bifunctional Compounds Designed to Target LRRK2
The assay measures the degradation of LRRK2 in cells where the C-terminus (3′) of the endogenous gene has been tagged with a HiBit sequence in HEK293 cells. The cells also express firefly lucisferase, expressed from a Cytomegalovirus promoter and introduced into the HiBit tagged cells and stably expressed. The Nano-Glo® Dual Luciferase Reporter Assay System (Promega™, Madison, WI) was utilized.
Day 1—Preparation of Compound and Assay Plates. Two sets of plates were prepared: a triplicate set for the HiBit assay in white 384-well plates and a triplicate set of plate in black 384-well plates for the Alamar Blue cell viability assay. Briefly, the growth media (DMEM+Glutamax-10% fetal bovine serum-1% Penicillin-Streptomicin) from two T128 flasks was aspirated from the flasks. Cells were washed with Dulbecco's Phosphate Buffered Saline (dPBS) and aspirated. Trypsin (3 mL per flask) was added and the flasks were incubated for 2-3 minutes.
Ten mL of OptiMEM—10% fetal bovine-1% penicillin-streptomycin (hereinafter, “OptiMEM media”) was added to the flask and the cells and transferred to a 50 ml conical tube. A cell count (25 ul of cell into Effendorf vial+25 ul of Trypan Blue Stain) was performed and the cell density adjusted to 15,000 cell/45 μl/well (3.33×10^5/mL) in OptiMEM media.
Forty-five microliters of the cell suspension (15,000 cells) was aliquoted to each well of the white 384-well plate. The plates incubated at room temperature for 10 minutes before being placed in the 37° C.+5% CO2 incubator overnight
Day 2—Compound Treatment. Exemplary compounds were prepared at a 1 mM starting concentration and 1:3 serial dilution for 11 points CRC prepared and stored in the freezer. The Master Compound Plate was thawed overnight at room temperature. DMSO (20 μL) was added into column 24 of the Master Compound Plate for negative control and 20 μL of 300 μM of Compound 4 in column 23 as positive control.
Intermediate Compound Plate with 4% DMSO in OptiMEM Media. DMSO was added to warm OptiMEM media to achieve a 4% DMSO solution (approximately 50 mL/plate). One-hundred microliters of the OptiMEM-4% DMSO was aliquoted to each well of 384-Well Deep Well Microplates.
The Master Compound Plate and the Intermediate Compound Plate were spun down.
One microliter of compound from the Master Compound Plate was transferred into the Intermediate plate (a 1:100 dilution). The diluted mixture was mixed and 5 μL transferred into the assay plate (a 1:10 dilution) for the final starting concentration of 1 μM. The Treated Assay plates were incubated for 24 hours at 37° C.+5% CO2. The Master Compound Plate was sealed and store at room temperature for a second run that was performed within a week.
One set of white assay plates was warmed to room temperature (45 minute).
The One Glo luciferase mixture was prepared. The media from white 384-well assay plates was aspirated. Twenty-five μL of the One Glo luciferase mixture was added to each well of the assay plates. The plates were incubated on the bench (room temperature) for 45 minutes, including 10 minutes of shaking at 700 rpm. The luminescence of each plate was read on a plate reader.
1:100 DLR substrate and 1:100 LgBiT Protein dilution were added to the Promega Stop and Glo buffer and mixed just before addition to assay plates. Twenty-five microliters of Stop and Glo mixture was added to each well. Assay plates incubated for at least 45 minutes, including 10 minutes of shaking at 700 rpm. The luminescence of each plate was read on a plate reader.
Analysis of LRRK2 HiBit Screening assays. As mentioned above, plates were run in triplicate and the assay repeated twice (total of 6 replicate for exemplary compounds). For each treatment, measurements were taken for firefly luciferase for cell number, cell viability (Alamar Blue), and Nanoluc for the LRRK2-HiBit quantification. […]

T1 sequence (Q5S007 whole entry): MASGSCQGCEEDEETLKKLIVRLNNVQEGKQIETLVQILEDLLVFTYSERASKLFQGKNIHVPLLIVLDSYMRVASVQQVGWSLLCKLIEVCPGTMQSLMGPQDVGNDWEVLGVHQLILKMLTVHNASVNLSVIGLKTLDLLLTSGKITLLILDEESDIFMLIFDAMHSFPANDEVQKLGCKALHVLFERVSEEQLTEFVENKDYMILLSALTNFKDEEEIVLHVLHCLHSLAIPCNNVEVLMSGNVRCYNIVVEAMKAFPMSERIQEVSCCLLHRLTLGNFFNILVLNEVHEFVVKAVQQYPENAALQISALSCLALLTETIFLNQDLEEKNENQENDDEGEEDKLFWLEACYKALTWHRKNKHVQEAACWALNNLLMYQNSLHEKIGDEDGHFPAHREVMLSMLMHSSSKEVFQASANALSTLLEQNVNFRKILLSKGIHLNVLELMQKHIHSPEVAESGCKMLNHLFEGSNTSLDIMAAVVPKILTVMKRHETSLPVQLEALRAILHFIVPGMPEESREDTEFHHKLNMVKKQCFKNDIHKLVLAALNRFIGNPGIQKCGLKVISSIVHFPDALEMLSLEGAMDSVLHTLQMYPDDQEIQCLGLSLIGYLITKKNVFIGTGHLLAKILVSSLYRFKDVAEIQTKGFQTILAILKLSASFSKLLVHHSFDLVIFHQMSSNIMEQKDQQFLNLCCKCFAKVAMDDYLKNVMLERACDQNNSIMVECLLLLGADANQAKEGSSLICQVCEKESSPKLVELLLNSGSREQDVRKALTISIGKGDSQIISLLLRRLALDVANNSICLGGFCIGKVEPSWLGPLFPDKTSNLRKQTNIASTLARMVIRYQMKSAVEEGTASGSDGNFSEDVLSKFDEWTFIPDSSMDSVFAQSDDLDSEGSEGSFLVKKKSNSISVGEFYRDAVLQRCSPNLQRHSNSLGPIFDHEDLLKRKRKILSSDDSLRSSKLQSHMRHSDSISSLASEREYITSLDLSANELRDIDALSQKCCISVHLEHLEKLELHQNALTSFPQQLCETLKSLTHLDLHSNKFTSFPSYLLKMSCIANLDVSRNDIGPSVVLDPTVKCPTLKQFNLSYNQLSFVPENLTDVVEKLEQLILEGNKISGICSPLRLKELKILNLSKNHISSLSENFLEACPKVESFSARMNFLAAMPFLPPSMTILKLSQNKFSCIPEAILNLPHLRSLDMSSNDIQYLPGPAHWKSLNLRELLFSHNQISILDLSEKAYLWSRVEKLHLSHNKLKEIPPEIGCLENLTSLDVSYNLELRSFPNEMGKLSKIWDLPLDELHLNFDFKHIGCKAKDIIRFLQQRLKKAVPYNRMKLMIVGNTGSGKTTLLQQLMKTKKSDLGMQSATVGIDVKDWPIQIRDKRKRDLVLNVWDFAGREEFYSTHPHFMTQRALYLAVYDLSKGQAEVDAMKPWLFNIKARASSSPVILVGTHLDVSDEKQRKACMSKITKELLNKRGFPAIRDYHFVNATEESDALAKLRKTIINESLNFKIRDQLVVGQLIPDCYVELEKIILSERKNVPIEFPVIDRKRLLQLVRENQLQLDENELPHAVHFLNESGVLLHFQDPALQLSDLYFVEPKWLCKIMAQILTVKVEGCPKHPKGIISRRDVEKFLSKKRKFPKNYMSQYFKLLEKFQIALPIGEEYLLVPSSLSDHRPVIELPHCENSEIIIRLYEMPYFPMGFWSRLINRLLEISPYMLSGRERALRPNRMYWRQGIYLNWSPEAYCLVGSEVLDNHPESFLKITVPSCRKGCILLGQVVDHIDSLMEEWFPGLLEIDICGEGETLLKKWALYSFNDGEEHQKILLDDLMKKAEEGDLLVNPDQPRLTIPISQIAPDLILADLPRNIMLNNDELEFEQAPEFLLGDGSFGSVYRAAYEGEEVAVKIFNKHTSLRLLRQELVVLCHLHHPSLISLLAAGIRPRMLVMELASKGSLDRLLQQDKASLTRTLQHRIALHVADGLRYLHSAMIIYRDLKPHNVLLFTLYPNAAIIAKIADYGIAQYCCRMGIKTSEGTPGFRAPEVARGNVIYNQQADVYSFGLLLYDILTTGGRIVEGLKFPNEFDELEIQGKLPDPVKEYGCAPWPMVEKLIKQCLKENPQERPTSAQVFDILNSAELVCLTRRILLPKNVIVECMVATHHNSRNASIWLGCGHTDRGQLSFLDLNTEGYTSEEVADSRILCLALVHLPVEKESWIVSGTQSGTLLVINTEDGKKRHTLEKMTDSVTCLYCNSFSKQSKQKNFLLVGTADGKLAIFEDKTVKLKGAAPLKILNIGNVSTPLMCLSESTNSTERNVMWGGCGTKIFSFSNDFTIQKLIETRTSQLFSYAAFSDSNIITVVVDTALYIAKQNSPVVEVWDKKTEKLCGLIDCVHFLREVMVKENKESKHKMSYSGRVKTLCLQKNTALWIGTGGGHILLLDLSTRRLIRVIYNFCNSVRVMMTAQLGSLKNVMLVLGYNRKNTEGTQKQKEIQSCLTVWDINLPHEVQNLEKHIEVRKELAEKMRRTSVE

| Dmax (HEK293, Table 2) | Compound | DC50 (Table 2) | Dmax (Table 2) |
| --- | --- | --- | --- |
| – | Cn1c(=O)n(C2CCC(=O)NC2=O)c2ccc(N3CCN(C[C@H]4C[C@H](OC5CCN(c6cc(-c7n[nH]c8cnc(OC9(C)CC9)cc78)ncn6)CC5)C4)CC3)cc21 (single isomer, unassigned) [Compound 36, rel-3-[3-methyl-2-oxo-5-(4-{[(1r,3r)-3-[(1-{6-[5-(1-methylcyclopropoxy)-1H-pyrazolo[3,4-c]pyridin-3-yl]pyrimidin-4-yl}piperidin-4-yl)oxy]cyclobutyl]methyl}piperazin-1-yl)-2,3-dihydro-1H-1,3-benzodiazol-1-yl]piperidine-2,6-dione] | 0.079 nM | 60% |
| – | Cn1c(=O)n(C2CCC(=O)NC2=O)c2ccc(C3CCN([C@H]4C[C@H](OC5CCN(c6cc(-c7n[nH]c8ccc(OC9(C)CC9)cc78)ncn6)CC5)C4)CC3)cc21 (single isomer, unassigned) [Compound 37, rel-3-(3-methyl-2-oxo-5-{1-[(1r,3r)-3-[(1-{6-[5-(1-methylcyclopropoxy)-1H-indazol-3-yl]pyrimidin-4-yl}piperidin-4-yl)oxy]cyclobutyl]piperidin-4-yl}-2,3-dihydro-1H-1,3-benzodiazol-1-yl)piperidine-2,6-dione] | 0.053 nM | 64% |
| 90% | Cn1c(=O)n(C2CCC(=O)NC2=O)c2cccc(N3CCC(O[C@H]4CC[C@H](CN5CCN(c6cc(-c7n[nH]c8cnc(OC9(C)CC9)cc78)ncn6)CC5)CC4)CC3)c21 (single isomer, unassigned) [Compound 46, rel-3-[3-methyl-2-oxo-4-(4-{[(1r,4r)-4-[(4-{6-[5-(1-methylcyclopropoxy)-1H-pyrazolo[3,4-c]pyridin-3-yl]pyrimidin-4-yl}piperazin-1-yl)methyl]cyclohexyl]oxy}piperidin-1-yl)-2,3-dihydro-1H-1,3-benzodiazol-1-yl]piperidine-2,6-dione] | 2.1 nM | – |
| 55% | CC(C)n1c(=O)n(C2CCC(=O)NC2=O)c2ccc(N3CCC(O[C@H]4CC[C@H](CN5CCN(c6cc(-c7n[nH]c8ccc(OC9(C)CC9)cc78)ncn6)CC5)CC4)CC3)cc21 (single isomer, unassigned) [Compound 49, rel-3-[2-oxo-3-(propan-2-yl)-5-(4-{[(1r,4r)-4-[(4-{6-[5-(1-methylcyclopropoxy)-1H-indazol-3-yl]pyrimidin-4-yl}piperazin-1-yl)methyl]cyclohexyl]oxy}piperidin-1-yl)-2,3-dihydro-1H-1,3-benzodiazol-1-yl]piperidine-2,6-dione] | 0.44 nM | – |
| 53% | CC(C)n1c(=O)n(C2CCC(=O)NC2=O)c2ccc(N3CCC(O[C@H]4CC[C@H](CN5CCN(c6cc(-c7n[nH]c8cnc(OC9(C)CC9)cc78)ncn6)CC5)CC4)CC3)cc21 (single isomer, unassigned) [Compound 52, rel-3-[2-oxo-3-(propan-2-yl)-5-(4-{[(1r,4r)-4-[(4-{6-[5-(1-methylcyclopropoxy)-1H-pyrazolo[3,4-c]pyridin-3-yl]pyrimidin-4-yl}piperazin-1-yl)methyl]cyclohexyl]oxy}piperidin-1-yl)-2,3-dihydro-1H-1,3-benzodiazol-1-yl]piperidine-2,6-dione] | 0.28 nM | – |
| 54% | CC(C)n1c(=O)n(C2CCC(=O)NC2=O)c2ccc(N3CCC(O[C@H]4CC[C@@H](CN5CCN(c6cc(-c7n[nH]c8cnc(OC9(C)CC9)cc78)ncn6)CC5)CC4)CC3)cc21 (single isomer, unassigned) [Compound 53, rel-3-[2-oxo-3-(propan-2-yl)-5-(4-{[(1r,4r)-4-[(4-{6-[5-(1-methylcyclopropoxy)-1H-pyrazolo[3,4-c]pyridin-3-yl]pyrimidin-4-yl}piperazin-1-yl)methyl]cyclohexyl]oxy}piperidin-1-yl)-2,3-dihydro-1H-1,3-benzodiazol-1-yl]piperidine-2,6-dione] | 0.59 nM | – |
| 51% | CC(C)Oc1ccc2[nH]nc(-c3cc(N4CCN(C[C@H]5CC[C@H](OC6CCN(c7ccc8c(c7)n(C(C)C)c(=O)n8C7CCC(=O)NC7=O)CC6)CC5)CC4)ncn3)c2c1 (single isomer, unassigned) [Compound 57, rel-3-[2-oxo-3-(propan-2-yl)-5-(4-{[(1r,4r)-4-[(4-{6-[5-(propan-2-yloxy)-1H-indazol-3-yl]pyrimidin-4-yl}piperazin-1-yl)methyl]cyclohexyl]oxy}piperidin-1-yl)-2,3-dihydro-1H-1,3-benzodiazol-1-yl]piperidine-2,6-dione] | 0.64 nM | – |

| Compound | Dmax (HEK293, Table 2) | DC50 (Table 2) | Dmax (Table 2) |
| --- | --- | --- | --- |
| Cn1c(=O)n(C2CCC(=O)NC2=O)c2ccc(N3CCC(O[C@H]4C[C@H](COC5CCN(c6cc(-c7n[nH]c8cnc(OC9(C)CC9)cc78)ncn6)CC5)C4)CC3)cc21 (single isomer, unassigned) [Compound 34, rel-3-(3-methyl-2-oxo-5-{4-[(1r,3r)-3-{[(1-{6-[5-(1-methylcyclopropoxy)-1H-pyrazolo[3,4-c]pyridin-3-yl]pyrimidin-4-yl}piperidin-4-yl)oxy]methyl}cyclobutoxy]piperidin-1-yl}-2,3-dihydro-1H-1,3-benzodiazol-1-yl)piperidine-2,6-dione] | 57% | 0.42 nM | – |
| Cn1c(=O)n(C2CCC(=O)NC2=O)c2ccc(N3CCC(O[C@H]4C[C@H](CN5CCN(c6cc(-c7n[nH]c8cnc(OC9(C)CC9)cc78)ncn6)CC5)C4)CC3)cc21 (single isomer, unassigned) [Compound 35, rel-3-(3-methyl-2-oxo-5-{4-[(1r,3r)-3-[(4-{6-[5-(1-methylcyclopropoxy)-1H-pyrazolo[3,4-c]pyridin-3-yl]pyrimidin-4-yl}piperazin-1-yl)methyl]cyclobutoxy]piperidin-1-yl}-2,3-dihydro-1H-1,3-benzodiazol-1-yl)piperidine-2,6-dione] | 50% | 0.052 nM | – |
| CC(C)n1c(=O)n(C2CCC(=O)NC2=O)c2ccc(N3CCC(O[C@H]4CC[C@H](CN5CCN(c6cc(-c7n[nH]c8ccc(OC(C)(C)C)cc78)ncn6)CC5)CC4)CC3)cc21 (single isomer, unassigned) [Compound 56, rel-3-[2-oxo-3-(propan-2-yl)-5-(4-{[(1r,4r)-4-[(4-{6-[5-(tert-butoxy)-1H-indazol-3-yl]pyrimidin-4-yl}piperazin-1-yl)methyl]cyclohexyl]oxy}piperidin-1-yl)-2,3-dihydro-1H-1,3-benzodiazol-1-yl]piperidine-2,6-dione] | 43% | 0.95 nM | – |
| CC(C)n1c(=O)n(C2CCC(=O)NC2=O)c2ccc(N3CCC(O[C@H]4CC[C@H](CN5CCN(c6cc(-c7n[nH]c8cnc(OC(C)(C)C)cc78)ncn6)CC5)CC4)CC3)cc21 (single isomer, unassigned) [Compound 58, rel-3-[2-oxo-3-(propan-2-yl)-5-(4-{[(1r,4r)-4-[(4-{6-[5-(tert-butoxy)-1H-pyrazolo[3,4-c]pyridin-3-yl]pyrimidin-4-yl}piperazin-1-yl)methyl]cyclohexyl]oxy}piperidin-1-yl)-2,3-dihydro-1H-1,3-benzodiazol-1-yl]piperidine-2,6-dione] | 70% | 33 nM | – |
